Assay results reported in patent US8945864B2, “Method of determining 1,5-anhydroglucitol, and reagent composition for determining 1,5-anhydroglucitol” (Ikeda Food Research Co., Ltd., priority 2006, dated 2015).

Molecular target: sorbose dehydrogenase (Sinorhizobium meliloti, UniProt Q92YU0)
Assay: Substrate specificity of sorbose dehydrogenase (relative reactivity, DCIP method)
Format: biochemical, Sinorhizobium sp. 97507
Conditions: not given
Protocol: One mL of a 0.1 M potassium phosphate buffer, pH 7.0, 1.0 mL of 1.0 M L-sorbose, 0.14 mL of 3 mM 2,6-dichlorophenol indophenol (DCIP), 0.2 mL of 3 mM 1-methoxy-5-methylphenazinium methyl sulfate, and 0.61 mL of water were added to a 3 mL quartz cell, and the quartz cell was set to a spectrophotometer equipped with a thermostat cell holder, and incubated at 37° C. for ten minutes. Then, 0.05 mL of the enzyme solution was added to the quartz cell, and changes in absorbance of DCIP at 600 nm (AABS600/min) was measured at 37° C. As the molar extinction coefficient of DCIP at pH 7.0 is known as 16.3 mM^−1, and the amount of enzyme that reduced 1 μmol of DCIP for one minute is defined as one unit. Following the definition, the concentration of enzyme activity was calculated based on the following equation. enzyme activity (units/mL)=(−ΔABS600/min×3.0×dilution rate)/(16.3×1.0×0.05)
Measurement conditions in the above “method of measuring enzyme activity” were suitably modified as necessary, and the optimal pH, pH stability, optimal temperature, temperature stability, substrate specificity, Km value, total molecular weight, subunit molecular weight, inhibitor, and product of the enzyme reaction were identified. The properties of the enzyme were evaluated in accordance with the following tests.
[…]. The results are shown as a relative value of each substrate with reference to the value of activity of L-sorbose as a standard.

sorbose dehydrogenase, sequence (Q92YU0 entry or part of it): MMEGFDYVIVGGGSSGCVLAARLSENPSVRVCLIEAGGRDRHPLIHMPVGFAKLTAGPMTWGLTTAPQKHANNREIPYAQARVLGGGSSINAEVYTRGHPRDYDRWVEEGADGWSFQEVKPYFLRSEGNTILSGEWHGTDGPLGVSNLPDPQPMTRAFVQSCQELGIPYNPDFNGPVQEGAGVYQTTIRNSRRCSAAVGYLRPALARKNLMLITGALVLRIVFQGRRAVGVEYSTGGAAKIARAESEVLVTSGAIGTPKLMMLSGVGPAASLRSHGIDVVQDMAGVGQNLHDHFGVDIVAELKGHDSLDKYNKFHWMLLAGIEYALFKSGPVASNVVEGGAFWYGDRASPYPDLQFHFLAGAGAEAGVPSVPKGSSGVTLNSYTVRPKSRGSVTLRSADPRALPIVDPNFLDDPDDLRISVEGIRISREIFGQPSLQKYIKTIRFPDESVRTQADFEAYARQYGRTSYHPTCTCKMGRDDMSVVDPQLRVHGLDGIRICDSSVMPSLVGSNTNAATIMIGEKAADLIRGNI

SMILES | Effect of the sorbose dehydrogenase on the substrate (in words) | Relative activity (%)
CCCCO [1-butanol] | weak effect | 1.29
CCC(C)O (centres unmarked) [2-butanol] | little effect | 
CCO [Ethanol] | little effect | 0
CC(O)C(C)O (centres unmarked) [2,3-butanediol] | little effect | 0.26

Same assay, conditions: substrate 333 mM (lactose 167 mM)

SMILES | Effect of the sorbose dehydrogenase on the substrate (in words)
CCCO [1-propanol] | little effect
O=C(CO)[C@@H](O)[C@H](O)[C@H](O)CO [D-(−)-fructose] | little effect
O=C[C@H](O)[C@H](O)[C@H](O)CO [D-ribose] | little effect
O=C[C@@H](O)[C@@H](O)[C@H](O)[C@H](O)CO [D-(+)-mannose] | little effect
OC[C@H]1O[C@@H](O[C@H]2[C@H](O)[C@@H](O)[C@H](O)O[C@@H]2CO)[C@H](O)[C@@H](O)[C@@H]1O [D-cellobiose] | little effect
O=C[C@H](O)[C@@H](O)[C@H](O)[C@H](O)CO [D-(+)-glucose] | weak effect
CC(C)CO [2-methyl-1-propanol] | weak effect
OC[C@H]1OC[C@H](O)[C@@H](O)[C@@H]1O [1,5-anhydroglucitol] | strong effect
O=C[C@H](O)[C@@H](O)[C@@H](O)[C@H](O)CO [D-(+)-galactose] | weak effect
CC(C)O [2-propanol] | little effect
C=CCO [Allyl alcohol] | weak effect
O=C[C@H](O)[C@@H](O)[C@H](O)CO [D-xylose] | little effect
OC[C@H]1O[C@H](OC[C@H]2O[C@H](O[C@]3(CO)O[C@H](CO)[C@@H](O)[C@@H]3O)[C@H](O)[C@@H](O)[C@@H]2O)[C@H](O)[C@@H](O)[C@H]1O [D-raffinose] | little effect
CCCC(C)O (centres unmarked) [2-pentanol] | little effect
OC[C@H]1O[C@H](O[C@H]2O[C@H](CO)[C@@H](O)[C@H](O)[C@H]2O)[C@H](O)[C@@H](O)[C@@H]1O [D-trehalose] | little effect
O=C(CO)[C@H](O)[C@@H](O)[C@H](O)CO [D-(−)-sorbose] | weak effect
OC[C@H]1O[C@H](O[C@H]2[C@H](O)[C@@H](O)[C@H](O)O[C@@H]2CO)[C@H](O)[C@@H](O)[C@@H]1O [Maltose] | little effect
CC(O)CO (centres unmarked) [propylene glycol] | little effect
O=C[C@H](O)[C@@H](O)[C@@H](O)CO [L-arabinose] | little effect
OC[C@@H](O)[C@@H](O)[C@H](O)[C@H](O)CO [D-mannitol] | little effect
OC[C@H]1O[C@@H](O[C@H]2[C@H](O)[C@@H](O)C(O)O[C@@H]2CO)[C@H](O)[C@@H](O)[C@H]1O (some centres unmarked) [Lactose] | little effect
OC[C@H]1O[C@@](CO)(O[C@H]2O[C@H](CO)[C@@H](O)[C@H](O)[C@H]2O)[C@@H](O)[C@@H]1O [sucrose] | little effect

Same assay, conditions: substrate final concentration 167 mM (lactose); […]

SMILES | Relative activity (%)
OC[C@H]1O[C@@H](O[C@H]2[C@H](O)[C@@H](O)C(O)O[C@@H]2CO)[C@H](O)[C@@H](O)[C@H]1O (some centres unmarked) [Lactose] | 0.71

Same assay, conditions: substrate final concentration 333 mM; […]

SMILES | Relative activity (%)
O=C(CO)[C@@H](O)[C@H](O)[C@H](O)CO [D-(−)-fructose] | 0
O=C[C@@H](O)[C@@H](O)[C@H](O)[C@H](O)CO [D-(+)-mannose] | 0.15
O=C[C@H](O)[C@@H](O)[C@H](O)[C@H](O)CO [D-(+)-glucose] | 1.22
O=C[C@H](O)[C@@H](O)[C@@H](O)[C@H](O)CO [D-(+)-galactose] | 1.69
C=CCO [Allyl alcohol] | 3.80
O=C(CO)[C@H](O)[C@@H](O)[C@H](O)CO [D-(−)-sorbose] | 2.96
OC[C@H]1O[C@H](O[C@H]2[C@H](O)[C@@H](O)[C@H](O)O[C@@H]2CO)[C@H](O)[C@@H](O)[C@@H]1O [Maltose] | 0

Same assay, conditions: substrate final concentration 333 mM; relative to activity of L-sorbose as standard (100)

SMILES | Relative activity (%)
CCCO [1-propanol] | 0.75
CC(C)CO [2-methyl-1-propanol] | 2.06
OC[C@H]1OC[C@H](O)[C@@H](O)[C@@H]1O [1,5-anhydroglucitol] | 79.1
CC(C)O [2-propanol] | 0.39
